Measured values taken from the SangsterLogP compilation.

Tests used:
[1] = method code SF-AS, from DOI: 10.1111/j.2042-7158.1991.tb06664.x, PMID: 1675277

Row | Compound | logP [1] | logP
1 | COc1ccc(S(=O)(=O)c2ccc(N)cc2)c(OC)c1 | – | 1.65
2 | NC(=O)c1ccc(S(N)(=O)=O)cc1 | – | -0.66
3 | Cc1ccc(S(=O)(=O)c2ccc(N)cc2)cc1 | 2.4 | –
4 | CC(=O)c1ccc(S(=O)(=O)c2ccc(N)cc2)cc1 | 1.67 | –
5 | Cc1cc(C)c(S(=O)(=O)c2ccc(N)cc2)c(C)c1 | 3.06 | –
6 | Nc1ccc(S(=O)(=O)c2ccccc2)cc1 | – | 1.84
7 | CN(C)c1ccc(S(=O)(=O)c2ccc(N)cc2)cc1 | – | 1.93
8 | COc1cccc(S(N)(=O)=O)c1 | – | 0.65
9 | CCNc1ccc(S(=O)(=O)c2ccc(N)cc2)cc1 | 1.98 | –
10 | Nc1ccc(S(=O)(=O)c2c(O)cc(O)cc2O)cc1 | 1.53 | –
11 | N#Cc1ccc(S(N)(=O)=O)cc1 | – | 0.4
12 | Nc1ccc(S(=O)(=O)c2ccc(N)cc2N)cc1 | 0.38 | –
13 | Nc1ccc(S(=O)(=O)c2ccc([N+](=O)[O-])cc2)cc1 | – | 2.03
14 | Nc1ccc(S(=O)(=O)c2ccc(O)cc2)cc1 | 1.57 | –
15 | NS(=O)(=O)c1ccccc1 | – | 0.33
16 | CCN(CC)C(=O)c1ccc(S(=O)(=O)c2ccc(N)cc2)cc1 | 1.44 | –
17 | Nc1ccc(S(=O)(=O)c2ccccc2N)cc1 | 1.56 | –

The next lines start with the values.

Row | logP [1] | logP | Compound
18 | 1.03 | – | COc1cc(OC)c(S(=O)(=O)c2ccc(N)cc2)c(OC)c1
19 | – | 0.27 | N#Cc1cccc(S(N)(=O)=O)c1
20 | – | 2.13 | COC(=O)c1ccc(S(=O)(=O)c2ccc(N)cc2)cc1
21 | – | 0.6 | NS(=O)(=O)c1cccc([N+](=O)[O-])c1
22 | – | -0.55 | NC(=O)c1cccc(S(N)(=O)=O)c1
23 | 2.01 | – | Nc1ccc(S(=O)(=O)c2ccc(F)cc2)cc1
24 | 2.57 | – | Nc1ccc(S(=O)(=O)c2ccc(Cl)cc2)cc1
25 | 1.63 | – | N#Cc1ccc(S(=O)(=O)c2ccc(N)cc2)cc1
26 | – | 3.15 | Nc1ccc(S(=O)(=O)c2ccc(Br)cc2)cc1
27 | 0.9 | – | NC(=O)c1ccc(S(=O)(=O)c2ccc(N)cc2)cc1
28 | – | 2.69 | Cc1ccc(S(=O)(=O)c2ccc(N)cc2)c(C)c1
29 | 0.88 | – | Nc1ccc(S(=O)(=O)c2ccc(NO)cc2)cc1
30 | 1.29 | – | Nc1ccc(S(=O)(=O)c2ccc(O)cc2O)cc1
31 | 3.12 | – | Nc1ccc(S(=O)(=O)c2ccc(Cl)cc2Cl)cc1
32 | 1.96 | – | COc1ccc(S(=O)(=O)c2ccc(N)cc2)cc1
33 | 1.03 | – | Nc1ccc(S(=O)(=O)c2cccc(N)c2)cc1
34 | – | 0.83 | Cc1ccc(S(N)(=O)=O)cc1
35 | – | 0.31 | CC(=O)c1ccc(S(N)(=O)=O)cc1
36 | – | 1.84 | Nc1ccc(S(=O)(=O)c2ccc([N+](=O)[O-])cc2[N+](=O)[O-])cc1
37 | – | -0.7 | NS(=O)(=O)c1ccc(S(N)(=O)=O)cc1
38 | 3 | – | CCN(CC)c1ccc(S(=O)(=O)c2ccc(N)cc2)cc1
